Measurements from patent publication US8404708B2, “Dual NK1/NK3 receptor antagonists” (Hoffmann-La Roche Inc., priority 2004, dated 2013).

Experiments:
human NK1 receptor = human NK1 receptor (Homo sapiens, UniProt P25103); test: NK1 receptor binding, [3H]substance P displacement, CHO cell membranes; conditions: first value of the cell pKi NK1/NK3; human NK1 receptor, [3H]substance P
[1] = biological target: T1, Recombinant human NK3 (hNK3) receptor (Homo sapiens, UniProt P29371); test: NK3 receptor binding, [3H]SR142801 displacement, membrane preparations; conditions: second value of the cell pKi NK1/NK3; hNK3 receptor, [3H]SR142801
T1 construct: expressed in transfected cells
T1 sequence (P29371 1-465): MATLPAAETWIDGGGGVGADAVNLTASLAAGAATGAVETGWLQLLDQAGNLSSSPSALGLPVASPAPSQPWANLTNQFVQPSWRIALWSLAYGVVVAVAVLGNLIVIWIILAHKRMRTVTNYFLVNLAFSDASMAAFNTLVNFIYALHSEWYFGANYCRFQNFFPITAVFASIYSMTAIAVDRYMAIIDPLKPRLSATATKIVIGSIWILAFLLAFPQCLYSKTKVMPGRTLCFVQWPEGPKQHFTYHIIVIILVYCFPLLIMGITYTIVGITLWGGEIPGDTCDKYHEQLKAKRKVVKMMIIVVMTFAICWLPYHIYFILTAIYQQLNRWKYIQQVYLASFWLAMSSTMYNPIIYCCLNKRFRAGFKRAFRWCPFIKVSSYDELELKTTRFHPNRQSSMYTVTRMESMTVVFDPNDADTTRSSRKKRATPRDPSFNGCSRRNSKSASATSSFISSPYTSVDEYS
Protocol: Non specific binding was determined using 10 μM SB222200. Assay buffer consisted of Tris-HCl (50 mM, pH 7.4), BSA (0.1%), MnCl2 (4 mM) and phosphoramidon (1 μM). Membrane preparations of hNK3 receptors (approximately 2.5 μg/well in a 96 well plate) were used to initiate the incubation for 90 min at room temperature. This assay was terminated by rapid filtration under vacuum through GF/C filters, presoaked for 90 min with PEI (0.3%), with 3×0.5 ml washes of ice-cold Tris buffer (50 mM, pH 7.4) containing 0.1% BSA. The radioactivity retained on the filters was measured by scintillation counting. All assays were performed in duplicate in at least two separate experiments.

human NK1 receptor, sequence (P25103 whole entry): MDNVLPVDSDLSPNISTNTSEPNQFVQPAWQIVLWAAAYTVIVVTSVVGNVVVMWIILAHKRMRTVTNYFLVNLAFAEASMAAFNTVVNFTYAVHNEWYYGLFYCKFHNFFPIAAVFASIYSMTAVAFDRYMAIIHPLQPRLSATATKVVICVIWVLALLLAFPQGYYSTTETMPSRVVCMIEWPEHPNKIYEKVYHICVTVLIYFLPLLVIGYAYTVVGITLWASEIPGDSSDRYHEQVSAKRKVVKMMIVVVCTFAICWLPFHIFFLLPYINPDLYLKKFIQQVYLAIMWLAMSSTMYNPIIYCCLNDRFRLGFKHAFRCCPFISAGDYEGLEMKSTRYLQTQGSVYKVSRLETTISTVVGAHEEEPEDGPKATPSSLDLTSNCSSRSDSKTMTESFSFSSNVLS

Row | SMILES | Ki (human NK1 receptor) [nM] | Ki [1] [nM]
1 | CN(C(=O)C(C)(C)c1cc(C(F)(F)F)cc(C(F)(F)F)c1)c1cnc(N2CC[C@H](O)[C@H](O)C2)cc1-c1ccccc1Cl (racemic) [Example 187, (3RS,4SR)-2-(3,5-Bis-trifluoromethyl-phenyl)-N-[4′-(2-chloro-phenyl)-3,4-dihydroxy-3,4,5,6-tetrahydro-2H-[1,2′]bipyridinyl-5′-yl]-N-methyl-isobutyramide] | 1.66 | 25.7
2 | CN(C(=O)C(C)(C)c1cc(C(F)(F)F)cc(C(F)(F)F)c1)c1cnc(N2CC[C@@H](O)[C@H](O)C2)cc1-c1ccccc1Cl (racemic) [Example 188, (3RS,4RS)-2-(3,5-Bis-trifluoromethyl-phenyl)-N-[4′-(2-chloro-phenyl)-3,4-dihydroxy-3,4,5,6-tetrahydro-2H-[1,2′]bipyridinyl-5′-yl]-N-methyl-isobutyramide] | 1.32 | 15.5
3 | CN(C(=O)C(C)(C)c1cc(C(F)(F)F)cc(C(F)(F)F)c1)c1cnc(N2CC[C@H](O)C[C@@H]2CO)cc1-c1ccccc1Cl (racemic) [Example 189, (2RS,4SR)-2-(3,5-Bis-trifluoromethyl-phenyl)-N-[4′-(2-chloro-phenyl)-4-hydroxy-2-hydroxymethyl-3,4,5,6-tetrahydro-2H-[1,2′]bipyridinyl-5′-yl]-N-methyl-isobutyramide] | 1.51 | 3.98
4 | Cc1ccccc1-c1cc(N2CC[C@H](O)C[C@@H]2CO)ncc1N(C)C(=O)C(C)(C)c1cc(C(F)(F)F)cc(C(F)(F)F)c1 (racemic) [Example 190, (2RS,4SR)-2-(3,5-Bis-trifluoromethyl-phenyl)-N-(4-hydroxy-2-hydroxymethyl-4′-o-tolyl-3,4,5,6-tetrahydro-2H-[1,2′]bipyridinyl-5′-yl)-N-methyl-isobutyramide] | 1.58 | 4.07
5 | Cc1ccccc1-c1cc(N2CC[C@H](O)[C@@H](CO)C2)ncc1N(C)C(=O)C(C)(C)c1cc(C(F)(F)F)cc(C(F)(F)F)c1 (racemic) [Example 191, (3RS,4SR)-2-(3,5-Bis-trifluoromethyl-phenyl)-N-(4-hydroxy-3-hydroxymethyl-4′-o-tolyl-3,4,5,6-tetrahydro-2H-[1,2′]bipyridinyl-5′-yl)-N-methyl-isobutyramide] | 2.04 | 24.5
6 | Cc1ccccc1-c1cc(N2CC[C@@H](O)[C@@H](CO)C2)ncc1N(C)C(=O)C(C)(C)c1cc(C(F)(F)F)cc(C(F)(F)F)c1 (racemic) [Example 192, (3RS,4RS)-2-(3,5-Bis-trifluoromethyl-phenyl)-N-(4-hydroxy-3-hydroxymethyl-4′-o-tolyl-3,4,5,6-tetrahydro-2H-[1,2′]bipyridinyl-5′-yl)-N-methyl-isobutyramide] | 3.02 | 34.7
7 | CN(C(=O)C(C)(C)c1cc(C(F)(F)F)cc(C(F)(F)F)c1)c1cnc(N2CC[C@H](O)[C@@H](CO)C2)cc1-c1ccccc1Cl (racemic) [Example 193, (3RS,4SR)-2-(3,5-Bis-trifluoromethyl-phenyl)-N-[4′-(2-chloro-phenyl)-4-hydroxy-3-hydroxymethyl-3,4,5,6-tetrahydro-2H-[1,2′]bipyridinyl-5′-yl]-N-methyl-isobutyramide] | 1.45 | 12
8 | CN(C(=O)C(C)(C)c1cc(C(F)(F)F)cc(C(F)(F)F)c1)c1cnc(N2CC[C@@H](O)[C@@H](CO)C2)cc1-c1ccccc1Cl (racemic) [Example 194, (3RS,4RS)-2-(3,5-Bis-trifluoromethyl-phenyl)-N-[4′-(2-chloro-phenyl)-4-hydroxy-3-hydroxymethyl-3,4,5,6-tetrahydro-2H-[1,2′]bipyridinyl-5′-yl]-N-methyl-isobutyramide] | 1.66 | 17.4
9 | CN(C(=O)C(C)(C)c1cc(C(F)(F)F)cc(C(F)(F)F)c1)c1cnc(N2CCC[C@@H](O)[C@H]2CO)cc1-c1ccccc1Cl (racemic) [Example 195, (2RS,3RS)-2-(3,5-Bis-trifluoromethyl-phenyl)-N-[4′-(2-chloro-phenyl)-3-hydroxy-2-hydroxymethyl-3,4,5,6-tetrahydro-2H-[1,2′]bipyridinyl-5′-yl]-N-methyl-isobutyramide] | 1.82 | 28.8
10 | Cc1ccccc1-c1cc(N2C[C@@H](O)C[C@@H]2CO)ncc1N(C)C(=O)C(C)(C)c1cc(F)cc(C(F)(F)F)c1 (stereo in doubt) [Example 14, (2R,4S)-2-(3-Fluoro-5-trifluoromethyl-phenyl)-N-[6-(4-hydroxy-2-hydroxymethyl-pyrrolidin-1-yl)-4-o-tolyl-pyridin-3-yl]-N-methyl-isobutyramide] | 1.29 | 3.02
11 | CN(C(=O)C(C)(C)c1cc(Cl)cc(Cl)c1)c1cnc(NCCO)cc1-c1ccccc1Cl [Example 1, N-[4-(2-Chloro-phenyl)-6-(2-hydroxy-ethylamino)-pyridin-3-yl]-2-(3,5-dichloro-phenyl)-N-methyl-isobutyramide] | 2.75 | 8.91
12 | CN(C(=O)C(C)(C)c1cc(Cl)cc(Cl)c1)c1cnc(N2CCC[C@H]2CO)cc1-c1ccccc1Cl [Example 2, (S)-N-[4-(2-Chloro-phenyl)-6-(2-hydroxymethyl-pyrrolidin-1-yl)-pyridin-3-yl]-2-(3,5-dichloro-phenyl)-N-methyl-isobutyramide] | 3.39 | 0.891
13 | CN(C(=O)C(C)(C)c1cc(Cl)cc(Cl)c1)c1cnc(N2C[C@H](O)C[C@H]2CO)cc1-c1ccccc1Cl [Example 3, (2S,4R)-N-[4-(2-Chloro-phenyl)-6-(4-hydroxy-2-hydroxymethyl-pyrrolidin-1-yl)-pyridin-3-yl]-2-(3,5-dichloro-phenyl)-N-methyl-isobutyramide] | 1.41 | 0.871
14 | CN(C(=O)C(C)(C)c1cc(F)cc(C(F)(F)F)c1)c1cnc(N2CCC[C@H]2CO)cc1-c1ccccc1Cl [Example 4, (S)-N-[4-(2-Chloro-phenyl)-6-(2-hydroxymethyl-pyrrolidin-1-yl)-pyridin-3-yl]-2-(3-fluoro-5-trifluoromethyl-phenyl)-N-methyl-isobutyramide] | 4.47 | 1.55
15 | CN(C(=O)C(C)(C)c1cc(F)cc(C(F)(F)F)c1)c1cnc(N2C[C@H](O)C[C@H]2CO)cc1-c1ccccc1Cl [Example 5, (2S,4R)-N-[4-(2-Chloro-phenyl)-6-(4-hydroxy-2-hydroxymethyl-pyrrolidin-1-yl)-pyridin-3-yl]-2-(3-fluoro-5-trifluoromethyl-phenyl)-N-methyl-isobutyramide] | 1.55 | 1.74
16 | CN(C(=O)C(C)(C)c1cc(F)cc(F)c1)c1cnc(N2C[C@H](O)C[C@H]2CO)cc1-c1ccccc1Cl [Example 6, (2S,4R)-N-[4-(2-Chloro-phenyl)-6-(4-hydroxy-2-hydroxymethyl-pyrrolidin-1-yl)-pyridin-3-yl]-2-(3,5-difluoro-phenyl)-N-methyl-isobutyramide] | 7.24 | 4.9
17 | COc1cc(Cl)cc(C(C)(C)C(=O)N(C)c2cnc(N3CCC[C@H]3CO)cc2-c2ccccc2Cl)c1 [Example 7, (S)-2-(3-Chloro-5-methoxy-phenyl)-N-[4-(2-chloro-phenyl)-6-(2-hydroxymethyl-pyrrolidin-1-yl)-pyridin-3-yl]-N-methyl-isobutyramide] | 4.79 | 1.78
